Reference: patent publication US20090137641A1, “Potassium Channel Activators for the Prevention and Treatment of Dystonia and Dystonia-Like Symptoms” (priority 2006, published 2009)
Values joined by “and” are separate entries in the source; they are usually repeats but may differ in a detail not shown here. Equal entries are not always repeated. Where two headings read alike, the source gives them in different places.

How the values were obtained:
dt^sz mutant hamster = format: in vivo, Syrian golden hamsters; settings: for Maximum severity 1st h, drug: individual animals and Mean, score 0-6; for Latency to onset (min), Drug: time to stage 2, mean ± S.E.; for suppressing the symptoms of dystonia (summary statement): summary for the two animal models of dystonia/dyskinesia, no dose given; for Latency max (min), drug: latency to stage 6
Description: Animals The dt^sz mutant hamsters (Syrian golden hamsters), used in the present experiments, were obtained by selective breeding as described in detail elsewhere (Richter and Löscher, 1998). In this inbred line of mutant hamsters the motor disturbances are transmitted by a recessive gene. All animal groups consisted of male and female hamsters, because there was no indication of sex-related differences in the severity of dystonia or in the response to drugs (Richter and Löscher, 1998). The animals were born and kept under controlled environmental conditions (23-25° C., 50-60% humidity, 13 h light/11 h dark cycle) with free access to standard Altromin 7204 diet and water. In cases of oral administrations the food was deprived for 2 h prior to the experiments. All experiments were carried out in the morning (08.30-12.00 a.m.) at controlled temperatures (23-25° C.).
Induction of dystonic episodes and severity-score of dystonia. […] After this procedure, dt^sz hamsters develop a sequence of abnormal movements and postures. Dystonia is the predominant symptom in these animals. The severity of dystonia can be rated by following score-system (Richter and Löscher, 1998): stage 1, flat body posture; stage 2, facial contortions, rearing with forelimbs crossing, disturbed gait with hyperextended forepaws; stage 3, hyperextended hindlimbs so that the animals appear to walk on tiptoes; stage 4, twisting movements and loss of balance; stage 5, hindlimbs hyperextended caudally; stage 6, immobilisation in a twisted, hunched posture with hind- and forelimbs tonically extended forward. After reaching the individual maximum stage the hamsters recover within 2-5 hours. The individual maximum stage of dystonia is usually reached within 3 hours after the hamsters were placed into the new cage. Therefore, the animals have to be observed for 3 h after the induction of dystonic attacks to determine the individual maximum stage reached after administrations of drugs or of vehicle (for pre- and post-drug control recordings).
In the present study, all animals were examined for the presence of dystonia after weaning at the age of 21 days by the triple stimulation procedure, including injections of saline. […] All groups of mutant hamsters used for investigations were repeatedly tested by triple stimulations (injections of saline) every 2 to 3 days after weaning until the severity of dystonia and latencies to the different stages were reproducible. The drug experiments were done in 30-42 days old hamsters, i.e. at an age of the maximum severity of dystonia.
Drug experiments The effects of the Kv7.2/7.3 channel activators retigabine (5, 7.5 and 10 mg/kg i.p. and 10 and 20 mg/kg p.o.) and flupirtine (10 and 20 mg/kg i.p.) were examined in groups of 6-10 dt^s/z hamsters. The total number of animals used for the present experiments was 68. The compounds were freshly dissolved in saline prior the experiments. Dystonic attacks were induced by the procedure of triple stimulation, as described above, but instead of saline the active compound was injected (injection volume: 5 ml/kg i.p. or p.o.). Pre- and post-drug control trials with the vehicle (injection volume: 5 ml/kg saline i.p. or p.o.) were undertaken 2-3 days before and 2-3 days after drug testing in the same animals. […] During this period the severity of dystonia, the latencies to the different stages and the side effects were noted. The rater of the severity score (and of the latencies to stages) was unaware whether the animals were treated with vehicle or an active principle. A second person who had done the preparation of the solutions observed the animals for behavioural effects. The side effects were not quantified, but locomotor activity and ataxia were determined according to a score system, as previously described (Löscher and Richter, 1994). […]

[1] = tested on: L-DOPA induced dyskinesia in 6-OHDA lesioned rats; experiment: chronic model of L-DOPA induced dyskinesia in unilaterally 6-OHDA lesioned rats (dyskinesia score); format: in vivo; parameters: side effects: dose or concentration left out as unconfirmed
Description: Method: The model has been developed by Cenci, Lee and Bjorklund (L-DOPA-induced dyskinesia in the rat is associated with striatal overexpression of prodynorphin- and glutamic acid decarboxylase mRNA, Eur J. Neurosci. 1998; 10:2694-706) and was modified to show more severe dyskinesia. In brief, rats are first unilaterally lesioned in the medial forebrain bundle resulting in a near complete loss of the mesostriatal dopamine pathway. After a recovery, rats receive daily doses of both, L-DOPA and benserazide. Within less than 3 weeks, rats develop typical dyskinetic movements, both affecting their forearms and the oral regions. […] The dyskinesia can be quantified using an easy and reliable scoring system developed by Cenci et al.
Dopamine-denervating lesions were performed by unilateral injections of 8 μg 6-OHDA in the left medial forebrain bundle of female Sprague-Dawley rats. All rats were tested for amphetamine-induced rotational behaviour 2 weeks after the injection. Rats showing >4 ipsilateral rotations/min over a 90-minute period were presumed to have a striatal dopamine depletion of more than 90%. At 4 weeks post lesion, 2 groups started to receive chronic treatment with either 20 mg/kg levodopa and 15 mg/kg benserazide or vehicle for 20 days. For rating, dyskinesia was classified into three subtypes (limb, axial and orolingual) and scored from 0 (=absent) to 4 (=permanent, not suppressible) over 200 minutes and every 30 minutes.
Results and Discussion: For drug testing, retigabine (2.5 and 5 mg/kg) was administered additional to levodopa and vehicle respectively. Effects of drug action in comparison to vehicle controls were detected by adding up the severity scores of each observation time.
To test the effect of flupirtine, the compound was administered at the dose of 10 mg/kg i.p. after administration of L-DOPA in these rats. A full cross over design was utilized to account for individual variability. […] The studies are ongoing and will we extended to cover a full dose range. Also, other neuronal potassium channel openers covered by the patent application will be tested. […]

[2] = mean of 10 animals, 20 mg/kg i.p., age 36-38 days of life
[3] = 20 mg/kg p.o., first hour after administration

`O=C1c2ccccc2C(Cc2ccncc2)(Cc2ccncc2)c2ccccc21` [XE-991, 10,10-bis(4-pyridinylmethyl)-9(10H)-anthracenone] was tested, and the side effects (dt^sz mutant hamster; 6 mg/kg as printed, two out of 8 animals, facial contortions 10-20 min after administration) was “moderate to unequivocal hyperlocomotion and moderate ataxia (up to 180 min) and marked initial facial contortions”, the “latency to onset of dystonia” value (dt^sz mutant hamster; i.p., not illustrated) was “tended to be decreased” and the side effects (dt^sz mutant hamster; the higher dose, all hamsters) was “facial contortions, salivation and increased defecation”. The “side effects: locomotion and ataxia” value (dt^sz mutant hamster; the higher dose, first h after administration) was “unequivocal hyperlocomotion and ataxia”.

With `CCOC(=O)Nc1ccc(NCc2ccc(F)cc2)nc1N` [Flupirtine, ethyl-N-[2-amino-6-(4-fluorophenylmethylamino)pyridin-3-yl]-carbamate] the antidystonic effects (dt^sz mutant hamster; 10 mg/kg i.p.) was “did not exerted significant antidystonic effects”, the “Maximum severity 1st h, drug” value (dt^sz mutant hamster; 10 mg/kg i.p.) was 3 score (6×) and 2 score (2×) and the “Latency to onset (min), Drug” value (dt^sz mutant hamster; 10.0 mg/kg i.p., n=8) was 6.9 ± 1.6 min. For the same compound, the adverse effects (dt^sz mutant hamster; 10 mg/kg i.p., within the first hour after administration) was “moderate hypolocomotion and ataxia”, the ataxia (dt^sz mutant hamster; 20 mg/kg i.p.) was “more marked ataxia (lasting up to 90 min)” and the “latency to onset of dystonia” value (dt^sz mutant hamster; 20 mg/kg i.p.) was “increased the latency to onset of dystonia”. For the same compound, the progression of dystonia (dt^sz mutant hamster; 20 mg/kg i.p., first and second h) was “delayed the progression of dystonia”, the locomotion (dt^sz mutant hamster; 20 mg/kg i.p., hyperlocomotion 15-60 min after injection) was “unequivocal hypolocomotion (5 to 15 min after injection) followed by hyperlocomotion” and the “maximum severity of dystonia” value (dt^sz mutant hamster; 20 mg/kg i.p., third h) was “reduced the maximum severity”. For the same compound, the “Latency to onset (min), Drug” value (dt^sz mutant hamster; 20.0 mg/kg i.p., n=10, *P<0.05) was 13.8 ± 3.8* min, the “Maximum severity 1st h (score of dystonia), drug” value (dt^sz mutant hamster; individual animals, 20 mg/kg i.p. (in 0.9% NaCl), dt^sz hamsters, age 36-38 days of life) was 2 score and the “Latency max (latency to stage 6), drug” value (dt^sz mutant hamster; individual animals, 20 mg/kg i.p., age 36-38 days of life) was 154 min. For the same compound, the “Latency onset (latency on stage 2), drug, Mean” value (dt^sz mutant hamster; [2]) was 13.8 min, the “Maximum severity 1st h (score of dystonia), drug, Mean” value (dt^sz mutant hamster; [2]) was 2.0 score and the “Maximum severity 2nd h (score of dystonia), drug, Mean” value (dt^sz mutant hamster; [2]) was 2.6 score. The “Maximum severity 3rd h (score of dystonia), drug, Mean” value (dt^sz mutant hamster; [2]) was 2.9 score, the “suppressing the symptoms of dystonia (summary statement)” value (dt^sz mutant hamster) was “found to be effective” and the tolerability ([1]; 10 mg/kg i.p. after administration of L-DOPA) was “well tolerated”. For the same compound, the dyskinetic symptoms ([1]; 10 mg/kg i.p. after administration of L-DOPA, cross over design) was “capable of suppressing the typical dyskinetic symptoms”.

`CCOC(=O)Nc1ccc(NCc2ccc(F)cc2)cc1N` [Retigabine, 2-amino-4-(4-fluorobenzylamino)-1-ethoxycarbonyl-aminobenzene] was tested, and the “Latency max (min), drug” value (dt^sz mutant hamster; 5 mg/kg i.p., individual animals) was 43 min and 87 min and 39 min, the “Latency to onset (min), Drug” value (dt^sz mutant hamster; 5.0 mg/kg i.p., n=9) was 27.1 ± 17.7 min and the “Latency max (min), drug” value (dt^sz mutant hamster; 7.5 mg/kg i.p., individual animals) was 149 min. For the same compound, the “Latency to onset (min), Drug” value (dt^sz mutant hamster; 7.5 mg/kg i.p., n=6, *P<0.05) was 11.8 ± 1.0* min, the pain after injection (dt^sz mutant hamster; 10 mg/kg i.p., first 5 min after injection) was “writhed with pain” and the “Latency to onset (min), Drug” value (dt^sz mutant hamster; 10.0 mg/kg i.p., n=9) was 7.1 ± 2.9 min. The “Maximum severity 1st h, drug” value (dt^sz mutant hamster; 10 mg/kg p.o.) was 3 score (6×) and 2 score, the “Latency max (min), drug” value (dt^sz mutant hamster; 10 mg/kg p.o., individual animals) was 168 min and 148 min and the “Latency to onset (min), Drug” value (dt^sz mutant hamster; 10.0 mg/kg p.o., n=7) was 4.9 ± 2.9 min. The locomotor activity (dt^sz mutant hamster; 10 mg/kg p.o., two hamsters) was “moderate reduction of the locomotor activity”, the ataxia (dt^sz mutant hamster; [3]) was “seven animals exhibited moderate ataxia” and the hypolocomotion (dt^sz mutant hamster; [3]) was “five hamsters showed moderate hypolocomotion”. The “Maximum severity 1st h, drug” value (dt^sz mutant hamster; 20 mg/kg p.o.) was 2 score (9×) and 3 score, the “Latency max (min), drug” value (dt^sz mutant hamster; 20 mg/kg p.o., individual animals) was 104 min and the “Latency to onset (min), Drug” value (dt^sz mutant hamster; 20.0 mg/kg p.o., n=10) was 9.6 ± 2.0 min. The general condition (dt^sz mutant hamster; four hamsters, 5 mg/kg i.p. five days after 10 mg/kg i.p., one euthanized, dilated colon) was “bad general condition”, the behavioural effects (dt^sz mutant hamster; i.p. injection, within the first h after administration) was “moderate to unequivocal hypolocomotion (sometimes interrupted by short lasting periods of increased locomotor activity) and ataxia” and the side effects (dt^sz mutant hamster; oral doses of 10 and 20 mg/kg) was “did not exert severe side effects”. For the same compound, the side effects ([1]; higher dosage, first hour of observation) was “marked hypolocomotion and ataxia”.

For `COc1ccc(Cl)cc1C1(F)C(=O)Nc2cc(C(F)(F)F)ccc21` (stereo not shown) [maxipost, 3-(5-chloro-2-methoxyphenyl)-1,3-dihydro-3-fluoro-6-(trifluoromethyl)-2H-indole-2-one], the “suppressing the symptoms of dystonia (summary statement)” value (dt^sz mutant hamster) was “found to be active”.
